# Results reported in article PMC10064984, “Anti-cyclooxygenase, anti-glycation, and anti-skin aging effect of Dendrobium officinale flowers’ aqueous extract and its phytochemical validation in aging” (Frontiers in Immunology, 2023).
# Values joined by “and” are separate entries in the source; they are usually repeats but may differ in a detail not shown here. Equal entries are not always repeated.
# Key:
# Format in all cases: biochemical
# DPPH· scavenging = assay: DPPH· scavenging;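 note: colourimetric DPPH radical scavenging in 96-well plates, absorbance read-out, percent inhibition relative to ethanol control absorbance, IC50 derived graphically from dose-inhibition curves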
# [1] = ABTS·+ decolourisation capacity
# Description: Fast colourimetric methods were slightly modified for the in vitro assessment of DPPH· scavenging ([19]), ABTS·+ decolourisation capacity ([20]), and total antioxidant capacity of FRAP ([21]). The stock solutions of derivatisation reagents were diluted as follows before measurement: DPPH was diluted with absolute ethanol until the absorbance was 0.8 ± 0.05 at λ = 517 nm. ABTS working solution was prepared with phosphate buffer (0.2 M, pH 7.4) to display absorbance of 0.8 ± 0.05 at λ = 729 nm, based on a previous study ([22]). The FRAP solution was prepared according to the instructions of the FRAP kit. Absorbances were measured using an automatic microplate reader (Molecular Group Ltd., USA), and all analyses were performed using 96-well plates. All measurements were performed in triplicate, and Trolox was used as a positive control.
# For ABTS·+ decolourisation capacity, 100 μl of ABTS working solution was mixed with 200 μl of sample solution, and the absorbance was recorded after 10 min at 729 nm. Phosphate buffer (0.2 M, pH 7.4) was used as a negative control.
# DPPH· and ABTS·+ radical scavenging activities of the tested sample were both calculated using the following formula:
# % inhibition = (A control − A sample)/A control × 100
# Where A control and A sample represent the absorbance of the control and test samples, respectively. The IC50 was calculated graphically from the dose-inhibition curves.
# [2] = FRAP total antioxidant capacity; conditions: for 标准曲线对应浓度 mM FeSO4 (FRAP, FeSO4 equivalent from standard curve): individual replicates; for 标准曲线对应浓度 mM FeSO4, mean: mean of 3;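 for all read-outs here: colourimetric FRAP kit assay read as absorbance in 96-well plates, values as mM FeSO4 via standard curve, EC1 being sample concentration matching 1.0 mmol/L FeSO4, Trolox positive control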
# [3] = Fluorescent AGEs formation in a BSA-fructose/glucose system; conditions: for inhibition of fluorescent AGEs formation (BSA-抗糖化), 平均 (mean): mean of 3; for IC50: BSA-抗糖化
# Description: Glycated protein was prepared in vitro by incubating BSA in the presence of D-glucose (GLC) and D-fructose (FRC). The DOF extract and specific standards were dissolved in DMSO:water (1:4). […] The assay was performed in triplicate, and AG was used as a positive control. The percentage inhibition of fluorescent AGE formation was calculated using the following equation: […] Where IF sample is fluorescence intensity in the presence of samples and BSA, IF sample control is fluorescence intensity in the presence of samples without BSA, IF control is fluorescence intensity without samples, and IF blank control is fluorescence intensity without samples and BSA.
# [4] = upper part of sheet (extract series), positive control also given in μM
smiles,measurement,setting,value
"Cc1c(C)c2c(c(C)c1O)CCC(C)(C(=O)O)O2 (centres unmarked) [Trolox, 6-hydroxyl-2,5,7,8-tetra-methylchroman-2-carboxylic acid, reference compound]","DPPH scavenging (sheet ""DPPH""), single replicate",DPPH· scavenging; 15.625 ug/ml,32.84% and 29.98% and 33.39%
same,"DPPH scavenging (sheet ""DPPH""), single replicate",DPPH· scavenging; 31.25 ug/ml,58.95% and 55.65% and 57.84%
same,"DPPH scavenging (sheet ""DPPH""), single replicate",DPPH· scavenging; 62.5 ug/ml,84.01% and 87.99% and 89.81%
same,"DPPH scavenging (sheet ""DPPH""), single replicate",DPPH· scavenging; 125 ug/ml,89.42% and 88.80% and 89.64%
same,"DPPH scavenging (sheet ""DPPH""), single replicate",DPPH· scavenging; 250 ug/ml,88.55% and 89.46% and 90.81%
same,"DPPH scavenging (sheet ""DPPH""), single replicate",DPPH· scavenging; 500 ug/ml,93.00% and 92.15% and 93.91%
same,"DPPH scavenging (sheet ""DPPH""), single replicate",DPPH· scavenging; 1000 ug/ml,95.26% and 95.19% and 95.32%
same,IC50,"DPPH· scavenging; mean ± SD, n = 3",159 ± 4.47 µM
same,IC50,DPPH· scavenging; [4],98.8 µM
same,ABTS scavenging rate,"[1]; 7.8125 ug/ml, single replicate wells",8.24% and 9.20% and 7.27%
same,ABTS scavenging rate,"[1]; 15.625 ug/ml, single replicate wells",16.72% and 19.40% and 19.88%
same,ABTS scavenging rate,"[1]; 31.25 ug/ml, single replicate wells",61.34% and 52.07% and 52.74%
same,ABTS scavenging rate,"[1]; 62.5 ug/ml, single replicate wells",94.28% and 95.58% and 92.94%
same,ABTS scavenging rate,"[1]; 125 ug/ml, single replicate wells",96.25% (2×) and 96.22%
same,ABTS scavenging rate,"[1]; 250 ug/ml, single replicate wells",96.32% and 96.28% and 96.27%
same,ABTS scavenging rate,"[1]; 0.5mM series, concentration 7.8125 (unit not given), replicate wells",5.05% and 4.88% and 5.29%
same,ABTS scavenging rate,"[1]; 0.5mM series, concentration 15.625 (unit not given), replicate wells",12.72% and 13.81% and 12.64%
same,ABTS scavenging rate,"[1]; 0.5mM series, concentration 31.25 (unit not given), replicate wells",31.58% and 33.31% and 33.45%
same,ABTS scavenging rate,"[1]; 0.5mM series, concentration 62.5 (unit not given), replicate wells",67.91% and 69.65% and 70.29%
same,ABTS scavenging rate,"[1]; 0.5mM series, concentration 125 (unit not given), replicate wells",99.61% and 99.52% and 99.85%
same,ABTS scavenging rate,"[1]; 0.5mM series, concentration 250 (unit not given), replicate wells",99.86% and 99.73% and 99.90%
same,ABTS scavenging rate,"[1]; 0.5mM series, concentration 500 (unit not given), replicate wells",99.85% and 99.75% and 99.73%
same,ABTS scavenging rate,"[1]; 500 ug/ml, single replicate wells",96.17% and 96.23% and 96.35%
same,IC50,"[1]; mean ± SD, n = 3",145.7 ± 1.22 µM
same,IC50,[1]; [4],111 µM
same,"标准曲线对应浓度 mM FeSO4 (FRAP, FeSO4 equivalent from standard curve)",[2]; 0.15 mM (37.5 μg/ml),0.9597 mM FeSO4 and 0.8823 mM FeSO4 and 0.8550 mM FeSO4
same,"标准曲线对应浓度 mM FeSO4, mean",[2]; 0.15 mM (37.5 μg/ml),0.8990 mM FeSO4
same,"标准曲线对应浓度 mM FeSO4 (FRAP, FeSO4 equivalent from standard curve)",[2]; 0.3 mM (75 μg/ml),1.6552 mM FeSO4 and 1.6329 mM FeSO4 and 1.5219 mM FeSO4
same,"标准曲线对应浓度 mM FeSO4, mean",[2]; 0.3 mM (75 μg/ml),1.6033 mM FeSO4
same,"标准曲线对应浓度 mM FeSO4 (FRAP, FeSO4 equivalent from standard curve)",[2]; 0.6 mM (150 μg/ml),3.1630 mM FeSO4 and 2.8987 mM FeSO4 and 2.7627 mM FeSO4
same,"标准曲线对应浓度 mM FeSO4, mean",[2]; 0.6 mM (150 μg/ml),2.9415 mM FeSO4
same,"标准曲线对应浓度 mM FeSO4 (FRAP, FeSO4 equivalent from standard curve)",[2]; 0.9 mM (225 μg/ml),4.4046 mM FeSO4 and 4.2357 mM FeSO4 and 4.0364 mM FeSO4
same,"标准曲线对应浓度 mM FeSO4, mean",[2]; 0.9 mM (225 μg/ml),4.2256 mM FeSO4
same,"标准曲线对应浓度 mM FeSO4 (FRAP, FeSO4 equivalent from standard curve)",[2]; 1.2 mM (300 μg/ml),5.8342 mM FeSO4 and 5.5270 mM FeSO4 and 5.3675 mM FeSO4
same,"标准曲线对应浓度 mM FeSO4, mean",[2]; 1.2 mM (300 μg/ml),5.5762 mM FeSO4
same,"标准曲线对应浓度 mM FeSO4 (FRAP, FeSO4 equivalent from standard curve)",[2]; 1.5 mM (375 μg/ml),6.9332 mM FeSO4 and 6.7909 mM FeSO4 and 6.4969 mM FeSO4
same,"标准曲线对应浓度 mM FeSO4, mean",[2]; 1.5 mM (375 μg/ml),6.7403 mM FeSO4
same,FRAP EC1,[2]; lower part of sheet (compound series),559.8 ± 19.4 µM
same,FRAP EC1,"[2]; mean ± SD, n = 3",559.8 ± 19.4 µM
same,FRAP EC1,[2]; upper part of sheet (extract series),55.35 ± 5.22 µg/mL
O=C(O)CC(=O)OC[C@H]1O[C@@H](Oc2c(-c3ccc(O)c(O)c3)oc3cc(O)cc(O)c3c2=O)[C@H](O)[C@@H](O)[C@@H]1O,"inhibition of fluorescent AGEs formation (BSA-抗糖化), single replicate",[3]; 15.625 µM,10.51% and 15.35% and 23.11%
same,"inhibition of fluorescent AGEs formation (BSA-抗糖化), single replicate",[3]; 31.25 µM,5.08% and 5.86% and 10.67%
same,"inhibition of fluorescent AGEs formation (BSA-抗糖化), 平均 (mean)",[3]; 31.25 µM,7.20%
same,"inhibition of fluorescent AGEs formation (BSA-抗糖化), single replicate",[3]; 62.5 µM,17.13% and 15.89% and 16.80%
same,"inhibition of fluorescent AGEs formation (BSA-抗糖化), 平均 (mean)",[3]; 62.5 µM,16.61%
same,"inhibition of fluorescent AGEs formation (BSA-抗糖化), single replicate",[3]; 125 µM,26.98% and 29.78% and 30.07%
same,"inhibition of fluorescent AGEs formation (BSA-抗糖化), 平均 (mean)",[3]; 125 µM,28.94%
same,"inhibition of fluorescent AGEs formation (BSA-抗糖化), single replicate",[3]; 250 µM,45.50% and 47.09% and 47.76%
same,"inhibition of fluorescent AGEs formation (BSA-抗糖化), 平均 (mean)",[3]; 250 µM,46.78%
same,"inhibition of fluorescent AGEs formation (BSA-抗糖化), single replicate",[3]; 500 µM,61.62% and 62.32% and 63.30%
same,"inhibition of fluorescent AGEs formation (BSA-抗糖化), 平均 (mean)",[3]; 500 µM,62.41%
same,"inhibition of fluorescent AGEs formation (BSA-抗糖化), single replicate",[3]; 1000 µM,77.56% and 77.94% and 77.85%
same,"inhibition of fluorescent AGEs formation (BSA-抗糖化), 平均 (mean)",[3]; 1000 µM,77.78%
same,"inhibition of fluorescent AGEs formation (BSA-抗糖化), single replicate",[3]; 2000 µM,88.53% and 88.63% and 88.83%
same,"inhibition of fluorescent AGEs formation (BSA-抗糖化), 平均 (mean)",[3]; 2000 µM,88.66%
same,"inhibition of fluorescent AGEs formation (BSA-抗糖化), single replicate",[3]; 4000 µM,94.35% and 94.74% and 94.79%
same,"inhibition of fluorescent AGEs formation (BSA-抗糖化), 平均 (mean)",[3]; 4000 µM,94.62%
same,IC50,"[3]; mean of 3 replicate IC50, read-out: IC50µM, mean",288 µM
same,IC50,"[3]; per replicate curve, read-out: IC50µM, single replicate",306 µM and 289 µM and 270 µM
